# Test results reported in patent US20220041532A1, “HYDROFLUOROOLEFINS AND METHODS OF USING SAME” (3M INNOVATIVE PROPERTIES COMPANY, priority 2018, published 2022).
# What was measured:
# [1] = Largest Soluble Hydrocarbon (LSH) test; assay type: physicochemical; conditions: hydrofluoroolefin:hydrocarbon about 1:1 to 1:2 by weight
# Description: Largest Soluble Hydrocarbon (LSH): The LSH of each hydrofluoroolefin compound was determined by mixing the compound with hydrocarbons of varying molecular weight (CnH2n+2, where n=9 to 24) in a hydrofluoroolefin:hydrocarbon ratio of about 1:1 to 1:2 by weight at room temperature (25° C.) and at 50° C. […] A larger value of n is interpreted herein to indicate a greater ability of the hydrofluoroolefin to clean hydrocarbons.
# The results presented in Table 2 indicate that the hydrofluoroolefins of the present invention are highly suitable fluids for cleaning applications.
# [2] = Atmospheric lifetime from rates of reaction with hydroxyl radicals; assay type: physicochemical; conditions: Degrades by direct photolysis and ozonolysis; value stated as 'Likely'
# Description: Atmospheric lifetime: The atmospheric lifetimes of hydrobromofluoroolefin Examples 1-3 were determined from their rates of reaction with hydroxyl radicals. The pseudo-first order rate for the reaction of the gaseous hydrobromofluoroolefin with hydroxyl radical was measured in a series of experiments relative to reference compounds such as chloromethane and ethane. The measurements were performed in a 5.7 L, heated FTIR gas cell equipped with a polished semiconductor-grade quartz window. An Oriel Instruments UV Lamp, Model 66921 equipped with a 480W mercury-xenon bulb was used to generate hydroxyl radicals by photolyzing ozone in the presence of water vapor. The concentrations of the hydrobromofluoroolefin and the reference compound were measured as a function of reaction time using an I-Series FTIR from Midac Corporation. The atmospheric lifetime was calculated from the reaction rates for the hydrobromofluoroolefin relative to the reference compounds and the reported lifetime of the reference compounds as shown below:
# where τx is the atmospheric lifetime of hydrobromofluoroolefin, τr is the atmospheric lifetime of the reference compound, and kx and kr are the rate constants for the reaction of hydroxyl radical with hydrobromofluoroolefin and the reference compound, respectively.
# The atmospheric lifetimes of Examples 1-3 were determined from their rates of reaction with hydroxyl radicals as described above and are reported in Table 3.
# [3] = 25° C., longest hydrocarbon compatible without haze
# [4] = 50° C., >23 = miscible with C23H48 without haze
SMILES,"LSH (n in CnH2n+2) [1, 3]","LSH (n in CnH2n+2) [1, 4]",Atmospheric Lifetime [2]
"FC(=CCl)C(F)(F)C(F)(F)C(F)(F)F [Example 5, 1-chloro-2,3,3,4,4,5,5,5-pent-1-ene]",17,22,–
"FC(=CCl)N1C(F)(F)C(F)(F)OC(F)(F)C1(F)F [Example 8, 4-(2-chloro-1-fluoro-vinyl)-2,2,3,3,5,5,6,6-octafluoro-morpholine]",14,18,–
"FC(=CBr)C(F)F [Example 3, 1-bromo-2,3,3-trifluoroprop-1-ene]",19,>23,ozonolysis. Likely <0.05 years
"FC(=CCl)C(F)C(F)(F)F (stereo not drawn) [Example 10, 1-chloro-2,3,4,4,4-pentafluoro-but-1-ene]",19,>23,–
"FC(=CCl)C(F)(F)C(F)(F)F [Example 6, 1-chloro-2,3,3,4,4,4-but-1-ene]",19,–,–
"FC(=CBr)C(F)(F)F [Example 1, 1-bromo-2,3,3,3-tetrafluoroprop-1-ene]",19,>23,ozonolysis. Likely <0.05 years
"FC(=CCl)C(F)(F)N(C(F)(F)F)C(F)(F)C(F)(F)F [Example 9, 3-chloro-1,1,2-trifluoro-N-(1,1,2,2,2-pentafluoroethyl)-N-(trifluoromethyl)prop-2-en-1-amine]",13,17,–
"FC(=CBr)C(F)(F)C(F)(F)C(F)F [Example 4, I-bromo-2,3,3,4,4,5,5-heptafluoropent-1-ene]",19,>23,–
"FC(=CCl)C(F)OC(F)(F)F (stereo not drawn) [Example 11, 1-chloro-2,3-difluoro-3-(trifluoromethoxy)prop-1-ene]",18,>23,–
"FC(=CBr)C(F)(F)C(F)(F)F [Example 2, 1-bromo-2,3,3,4,4,4-hexafluorobut-1-ene]",19,>23,ozonolysis. Likely <0.05 years
"FC(=CCl)C(F)(F)OC(F)(F)F [Example 7, 1-chloro-2,3,3-trifluoro-3-(trifluoromethoxy)prop-1-ene]",19,>23,–
